Data as given in patent publication US20250154198A1, “PEPTIDE INHIBITORS OF INTERLEUKIN-23 RECEPTOR” (Zealand Pharma A/S, priority 2021, published 2025).
*1 amine or outer side, *2 acyl side, *3 side chain or, on linkers, in order; H or OH if unused. Where a SMILES comes first, the peptide text is derived from it. Bridges are numbered along the chain shown (N, C = ends). [ ]: non-standard residue; d: D form. αMeAla(3-pyridyl) = C[C@](N)(Cc1cccnc1)C(=O)O; X10 = C[C@@](Cc1ccc(F)cc1)(N[*:1])C(=O)[*:2]; Trp(1-Me) = Cn1cc(C[C@H](N)C(=O)O)c2ccccc21; Phe(3,4-Me2) = Cc1ccc(C[C@H](N)C(=O)O)cc1C; 2Nal = N[C@@H](Cc1ccc2ccccc2c1)C(=O)O; AEF = NCCOc1ccc(C[C@H](N)C(=O)O)cc1; X1 = O=C(Cc1ccc(CN[*:1])cc1)[*:2]; αMeR = C[C@](N)(CCCNC(=N)N)C(=O)O; αMeL = CC(C)C[C@](C)(N)C(=O)O; CH2COCH2 = O=C(C[*:1])C[*:2]; αMeV = CC(C)[C@](C)(N)C(=O)O; 3Amb = NCc1cccc(C(=O)O)c1; Dab = NCC[C@H](N)C(=O)O

What was measured:
[1] = Peptide stability in simulated gastric fluid (SGF); format: in vitro ADME; conditions: Table 3-3, porcine pepsin, pH 1.2, 37° C., 10 μM; for remaining at 1 h, 10 μM / remaining at 4 h, 10 μM: pig; for remaining at 1 h, 10 μM: read-out: SGF (% remaining 1 h); for remaining at 4 h, 10 μM: read-out: SGF (% remaining 4 h)
Experimental: (§1) Determination of Peptide Stability in Simulated Gastric Fluid (SGF) and Simulated Intestinal Fluid (SIF)
(§2) SGF was prepared by dissolving sodium chloride (0.2 g) in 50 mL of water. A volume of 0.7 mL of 10 M HCl was added to adjust the pH of the solution to 1.2 and the volume made up to 100 mL with water. […] SIF was prepared by dissolving monobasic potassium phosphate (0.68 g) in 50 mL of water and adjusting the pH to 6.8 with 1 M NaOH. The volume was subsequently made up to 100 mL with water. 200 mg porcine pancreatin (P1625, Sigma Aldrich) was gently dissolved into 20 mL preheated (37° C.) solution (10 g/L) immediately prior to the incubation.
(§3) The incubation was performed at 37° C. with gentle shaking. […] After the last timepoint, the sampling plate was mixed for 10 min on a shaking table and centrifuged 10 min at 2200 g. 70 μL resulting supernatant was diluted with 150 μL water, mixed and centrifugated before analysis by liquid chromatography high resolution mass spectrometry. […] Percent remaining at each timepoint was calculated relative to timepoint zero based on absolute peak areas.

[2] = Peptide stability in simulated intestinal fluid (SIF); format: in vitro ADME; conditions: pig, Table 3-2, porcine pancreatin, pH 6.8, 37° C., 10 μM; for remaining at 1 h, 10 μM: read-out: SIF (% remaining 1 h); for remaining at 4 h, 10 μM: read-out: SIF (% remaining 4 h)
Experimental: as §1, §2, §3

human IL-23R = target: T1, human IL-23R (Homo sapiens, UniProt Q5VWK5); assay: Binding assay (NanoBRET displacement of fluorophore-labelled reference compound) for estimating binding affinity to human IL-23R; conditions: Table 3-1; read-out: Ki hIL-23R
T1 construct: UniProtKB—Q5VWK5, amino acids 22-629; secretion signal of the plasmid (Promega N1371); expressed in transfected cells
T1 sequence (Q5VWK5 22-629): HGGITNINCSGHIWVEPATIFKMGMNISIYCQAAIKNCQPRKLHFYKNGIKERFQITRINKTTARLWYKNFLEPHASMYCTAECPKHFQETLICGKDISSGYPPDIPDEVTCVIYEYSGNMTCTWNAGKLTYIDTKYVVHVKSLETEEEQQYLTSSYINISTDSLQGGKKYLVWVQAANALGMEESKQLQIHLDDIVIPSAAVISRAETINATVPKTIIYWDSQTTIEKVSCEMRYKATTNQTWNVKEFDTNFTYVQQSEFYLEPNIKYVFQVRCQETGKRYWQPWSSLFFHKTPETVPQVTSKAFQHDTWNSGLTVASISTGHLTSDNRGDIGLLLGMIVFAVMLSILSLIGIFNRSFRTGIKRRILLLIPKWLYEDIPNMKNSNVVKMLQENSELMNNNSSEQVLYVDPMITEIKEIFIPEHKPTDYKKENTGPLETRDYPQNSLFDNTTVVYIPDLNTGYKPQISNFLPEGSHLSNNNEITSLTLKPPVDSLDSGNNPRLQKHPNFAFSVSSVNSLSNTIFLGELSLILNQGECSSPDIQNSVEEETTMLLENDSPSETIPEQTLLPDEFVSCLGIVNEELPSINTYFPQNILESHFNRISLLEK

[3] = simulated gastric fluid (SGF) with porcine pepsin
[4] = simulated gastric fluid (SGF) with porcine pepsin, 4 h
[5] = simulated intestinal fluid (SIF) with porcine pancreatin

Row | Structure (SMILES) | remaining at 1 h, 10 μM [1, 3] [%] | remaining at 4 h, 10 μM [1, 4] [%] | remaining at 1 h, 10 μM [2, 5] [%] | remaining at 4 h, 10 μM [2, 5] [%] | further results
1 | CC(C)C[C@]1(C)NC(=O)[C@H](Cc2c[nH]c3ccccc23)NC(=O)[C@H](Cc2c[nH]c3ccccc23)NC(=O)[C@@H]2CSCC(=O)CSC[C@H](NC(=O)[C@H](CO)NC(=O)[C@@H](NC(=O)[C@@H](N)CC(=O)O)CSCC(=O)CSC[C@@H](C(=O)N[C@@H](CCCNC(=N)N)C(N)=O)NC1=O)C(=O)N[C@@H](Cc1c[nH]c3ccccc13)C(=O)N[C@@H](CCC(N)=O)C(=O)N2 [Compound 1, H-DC(1a)SC(2a)WQC(2a)WW[2-Me-Leu]C(1a)R-[NH2]] | – | – | – | – | remaining at 1 h, 10 μM [1]: 86%; remaining at 4 h, 10 μM ([1]; 4 h): 68%; remaining at 1 h, 10 μM [2]: 0%; remaining at 4 h, 10 μM [2]: 0%
2 | CC(=O)N[C@H]1CCCCNC(=O)CC[C@@H](C(=O)N[C@@H](CCCNC(=N)N)C(N)=O)NC(=O)[C@H](CC(C)C)NC(=O)[C@H](Cc2ccc3ccccc3c2)NC(=O)[C@H](Cc2c[nH]c3ccccc23)NC(=O)[C@@H]2CSCC(=O)CSC[C@H](NC(=O)[C@H](CO)NC1=O)C(=O)N[C@@H](Cc1cn(C)c3ccccc13)C(=O)N[C@@H](CCC(N)=O)C(=O)N2 [Compound 27, [Ac]-K(1c)SC(2a)[1-Me-Trp]QC(2a)W[2-Nal]LE(1c)R-[NH2]] (Ac-KSC[Trp(1-Me)]QCW[2Nal]LER-NH2; lactam 1-10; linker 3-6 via CH2COCH2) | 0 | 0 | 0 | 0 | –
3 | CC(C)C[C@]1(C)NC(=O)[C@H](Cc2ccc3ccccc3c2)NC(=O)[C@H](Cc2ccc(OCCN)cc2)NC(=O)[C@@H]2CSCC(=O)CSC[C@H](NC(=O)[C@H](CO)NC(=O)c3cccc(c3)CNC(=O)CC[C@@H](C(=O)N[C@@](C)(CCCNC(=N)N)C(N)=O)NC1=O)C(=O)N[C@@H](Cc1c[nH]c3ccccc13)C(=O)N[C@@H](CCC(N)=O)C(=O)N2 [Compound 42, [(3-Aminomethyl)benzoyl](1c)*SC(2a)WQC(2a)[Y(2-aminoethoxy)][2-Nal][2-Me-Leu]E(1c)[2-Me-Arg]-[NH2]] ([3Amb]SCWQC[AEF][2Nal][αMeL]E[αMeR]-NH2; linker 3-6 via CH2COCH2; lactam N-10) | 90 | – | – | – | Ki (human IL-23R): 2.76 nM
4 | CC(=O)N[C@@H](CC(=O)O)C(=O)N[C@H]1CCC(=O)NCCCC[C@@H](C(=O)N[C@@H](CCCNC(=N)N)C(N)=O)NC(=O)[C@](C)(CC(C)C)NC(=O)[C@H](Cc2ccc3ccccc3c2)NC(=O)[C@H](Cc2c[nH]c3ccccc23)NC(=O)[C@@H]2CSCC(=O)CSC[C@H](NC(=O)[C@H]([C@@H](C)O)NC1=O)C(=O)N[C@@H](Cc1c[nH]c3ccccc13)C(=O)N[C@@H](CCC(N)=O)C(=O)N2 [Compound 57, [Ac]-DE(1c)TC(2a)WQC(2a)W[2-Nal][2-Me-Leu]K(1c)R-[NH2]] (Ac-DETCWQCW[2Nal][αMeL]KR-NH2; lactam 2-11; linker 4-7 via CH2COCH2) | 21 | 1 | 7 | 0 | –
5 | CC(=O)N[C@@H](CC(=O)O)C(=O)N[C@H]1CCC(=O)NCCCC[C@@H](C(=O)N[C@@H](CCC(=O)O)C(=O)N[C@@H](CC(N)=O)C(=O)NCC(N)=O)NC(=O)[C@](C)(CC(C)C)NC(=O)[C@H](Cc2ccc3ccccc3c2)NC(=O)[C@H](Cc2c[nH]c3ccccc23)NC(=O)[C@@H]2CSCC(=O)CSC[C@H](NC(=O)[C@H](CO)NC1=O)C(=O)N[C@@H](Cc1c[nH]c3ccccc13)C(=O)N[C@@H](CCC(N)=O)C(=O)N2 [Compound 58, [Ac]-DE(1c)SC(2a)WQC(2a)W[2-Nal][2-Me-Leu]K(1c)ENG-[NH2]] (Ac-DESCWQCW[2Nal][αMeL]KENG-NH2; lactam 2-11; linker 4-7 via CH2COCH2) | 61 | 8 | 80 | 45 | –
6 | CC(=O)N[C@@H](CC(=O)O)C(=O)N[C@H]1CCC(=O)NCCCC[C@@H](C(=O)NCC(N)=O)NC(=O)[C@](C)(CC(C)C)NC(=O)[C@H](Cc2ccc3ccccc3c2)NC(=O)[C@H](Cc2c[nH]c3ccccc23)NC(=O)[C@@H]2CSCC(=O)CSC[C@H](NC(=O)[C@H](CO)NC1=O)C(=O)N[C@@H](Cc1c[nH]c3ccccc13)C(=O)N[C@@H](CCC(N)=O)C(=O)N2 [Compound 60, [Ac]-DE(1c)SC(2a)WQC(2a)W[2-Nal][2-Me-Leu]K(1c)G-[NH2]] (Ac-DESCWQCW[2Nal][αMeL]KG-NH2; lactam 2-11; linker 4-7 via CH2COCH2) | 7 | 0 | 69 | 12 | –
7 | CC(C)C[C@]1(C)NC(=O)[C@H](Cc2ccc3ccccc3c2)NC(=O)[C@H](Cc2ccccc2)NC(=O)[C@@H]2CCNC(=O)CC[C@H](NC(=O)[C@H](CO)NC(=O)Cc3ccc(cc3)CNC(=O)CC[C@@H](C(=O)N[C@@H](CCN)C(N)=O)NC1=O)C(=O)N[C@@H](Cc1c[nH]c3ccccc13)C(=O)N[C@@H](CCC(N)=O)C(=O)N2 [Compound 130, [4-Aminomethyl-phenylacetyl](1c)*SE(2c)WQ[Dab](2c)F[2-Nal][2-Me-Leu]E(1c)[Dab]-[NH2]] ([X1]SEWQ[Dab]F[2Nal][αMeL]E[Dab]-NH2; lactam 3-6, N-10) | 59 | 14 | 1 | 0 | –
8 | CC[C@H](C)[C@@H]1NC(=O)Cc2ccc(cc2)CNC(=O)CC[C@@H](C(=O)N[C@@H](CCN)C(=O)N[C@@](C)(Cc2cccnc2)C(N)=O)NC(=O)[C@](C)(C(C)C)NC(=O)[C@H](Cc2ccc(C)c(C)c2)NC(=O)[C@H](Cc2ccc(OCCN)cc2)NC(=O)[C@@H]2CCNC(=O)CC[C@H](NC1=O)C(=O)N[C@@H](Cc1c[nH]c3ccccc13)C(=O)N[C@@H](CCC(N)=O)C(=O)N2 [Compound 165, [4-Aminomethyl-phenylacetyl](1c)*IE(2c)WQ[Dab](2c)[Y(2-aminoethoxy)][F(3,4-Me)][2-Me-Val]E(1c)[Dab][2-Me-3-(3-Pyridyl)-Ala]-[NH2]] ([X1]IEWQ[Dab][AEF][Phe(3,4-Me2)][αMeV]E[Dab][αMeAla(3-pyridyl)]-NH2; lactam 3-6, N-10) | – | 109 | – | 109 | –
9 | CC[C@H](C)[C@@H]1NC(=O)Cc2ccc(cc2)CNC(=O)CC[C@@H](C(=O)N[C@@H](CCN)C(=O)N[C@@](C)(Cc2cccnc2)C(N)=O)NC(=O)[C@](C)(C(C)C)NC(=O)[C@H](Cc2ccc(C)c(C)c2)NC(=O)[C@](C)(Cc2ccc(F)cc2)NC(=O)[C@@H]2CCNC(=O)CC[C@H](NC1=O)C(=O)N[C@@H](Cc1c[nH]c3ccccc13)C(=O)N[C@@H](CCC(N)=O)C(=O)N2 [Compound 169, [4-Aminomethyl-phenylacetyl](1c)*IE(2c)WQ[Dab](2c)[2-Me-F(4-F)][F(3,4-Me)][2-Me-Val]E(1c)[Dab][2-Me-3-(3-Pyridyl)-Ala]-[NH2]] ([X1]IEWQ[Dab][X10][Phe(3,4-Me2)][αMeV]E[Dab][αMeAla(3-pyridyl)]-NH2; lactam 3-6, N-10) | – | – | – | 72 | SGF (% remaining 4 h) ([1]; 4 h): 121%
